Assay results from patent publication US5696151A, “Compounds useful for the inhibition of the replication of HIV-1 and HIV-1 mutants” (priority 1995, dated 1997).
In brackets after ≈: the same amount, converted by molar mass.

Columns and labels:
Format in all cases: cell-based
HIV-1/100-Ile = assay: Inhibition of HIV-1 induced syncytium formation in CEM cells, RT mutant 100-Ile; details: Human immunodeficiency virus 1, CCRF-CEM, 96 h, Table 2B, day 4, averages of 2 to 3 independent experiments, read-out: Antiviral Activity of Comparative Compounds EC50, 100-Ile
From the text: (§1) CEM cells were obtained from the American Tissue Cell Culture Collection (Rockville, Md.). HIV-1(IIIB) was originally obtained from the culture supernatant of persistently HIV-1-infected H9 cells and was provided by R. C. Gallo and M. Popovic (National Cancer Institute, National Institutes of Health, Bethesda, Md.). […] 67: 5353-5359 (1993); HIV-1/Lys-138 ("Lys-138") was selected for resistance against TSAO-m^3T as described in Balzarini et al, Virology 192: 246-253 (1993) and Balzarini et al, Proc. Nat. Acad. Sci. USA 90: 6952-6956 (1993); HIV-1/181-Cys ("181-Cys") was selected for resistance against pyridinone L-697,661 as described in Balzarini et al, Virology 192: 246-253 (1993); and HIV-1/188-His ("188-His") was selected for resistance against HEPT as described in Balzarini et al, Mol. Pharmocol. 44: 694-701 (1993). 188-His was then further converted to HIV-1/188-Leu "188-Leu") upon further passage in cell culture in the absence of the HEPT.
(§2) CEM cells were suspended at ≈300,000 cells per ml of culture medium and infected with approximately 100 CCID50 (CCID50 being the 50% cell culture infective dose) of HIV-1(IIIB) or one of the HIV-1 RT mutant strains described above. Then 100 μl of the infected cell suspensions was added to 200 μl microtiter plate wells containing 100 μl of appropriate serial (5-fold) dilutions of the test compounds. The inhibitory effect of the test compounds on HIV-1 induced syncytium formation in CEM cells was examined microscopically on day 4 post infection.

HIV-1/106-Ala = assay: Inhibition of HIV-1 induced syncytium formation in CEM cells, RT mutant 106-Ala; details: Human immunodeficiency virus 1, CCRF-CEM, 96 h, Table 2B, day 4, averages of 2 to 3 independent experiments, read-out: Antiviral Activity of Comparative Compounds EC50, 106-Ala
From the text: as §1, §2

HIV-1/Lys-138 = assay: Inhibition of HIV-1 induced syncytium formation in CEM cells, RT mutant 138-Lys; details: Human immunodeficiency virus 1, CCRF-CEM, 96 h, Table 2B, day 4, averages of 2 to 3 independent experiments, read-out: Antiviral Activity of Comparative Compounds EC50, 138-Lys
From the text: as §1, §2

in vitro = details: human, cem cells, CC50 (50% cytostatic concentration), Table 2B; CEM cell proliferation; averages of 2 to 3 independent experiments
From the text: as §1
^b 50% cytostatic concentration (i.e., compound concentration require
to inhibit CEM cell proliferation by 50%)

HIV-1(IIIB) = assay: Inhibition of HIV-1 induced syncytium formation in CEM cells, wild type; details: Human immunodeficiency virus 1, IIIB, CCRF-CEM, 96 h, Table 2B, WT = HIV-1(IIIB), day 4, averages of 2 to 3 independent experiments, read-out: Antiviral Activity of Comparative Compounds EC50, WT
From the text: as §1, §2

HIV-1/181-Cys = assay: Inhibition of HIV-1 induced syncytium formation in CEM cells, RT mutant 181-Cys; details: Human immunodeficiency virus 1, CCRF-CEM, 96 h, Table 2B, day 4, averages of 2 to 3 independent experiments, read-out: Antiviral Activity of Comparative Compounds EC50, 181-Cys
From the text: as §1, §2

Structure (SMILES)	EC50 (HIV-1/100-Ile) [µg/mL]	EC50 (HIV-1/106-Ala) [µg/mL]	EC50 (HIV-1/Lys-138) [µg/mL]	CC50 (in vitro) [µg/mL]	EC50 (HIV-1(IIIB)) [µg/mL]	EC50 (HIV-1/181-Cys) [µg/mL]
Cc1ccsc1C(=S)Nc1ccc(Cl)c(C(=O)OC(C(C)C)C(C)C)c1 [Compound 101]	3 (≈ 7.32 µM)	0.2 (≈ 0.488 µM)	0.33 (≈ 0.805 µM)	≥ 100	0.045 (≈ 0.11 µM)	0.55 (≈ 1.34 µM)
Cc1occc1C(=S)Nc1ccc(Cl)c(C(=O)OC(C(C)C)C(C)C)c1 [Compound 102]	0.85 (≈ 2.16 µM)	0.85 (≈ 2.16 µM)	0.08 (≈ 0.203 µM)	3.7 (≈ 9.39 µM)	0.03 (≈ 0.0762 µM)	0.65 (≈ 1.65 µM)
Cc1occc1C(=S)Nc1ccc(Cl)c(C(=O)OCC(C)C)c1 [Compound 103]	0.19 (≈ 0.54 µM)	0.075 (≈ 0.213 µM)	0.06 (≈ 0.171 µM)	8.5 (≈ 24.2 µM)	0.01 (≈ 0.0284 µM)	0.07 (≈ 0.199 µM)
C=CCOC(=O)c1cc(NC(=S)c2ccoc2C)ccc1Cl [Compound 104]	0.65 (≈ 1.94 µM)	0.4 (≈ 1.19 µM)	0.2 (≈ 0.596 µM)	11 (≈ 32.8 µM)	0.01 (≈ 0.0298 µM)	0.37 (≈ 1.1 µM)
Cc1occc1C(=S)Nc1ccc(Cl)c(C(=O)OCC2CC2)c1 [Compound 105]	0.4 (≈ 1.14 µM)	0.2 (≈ 0.572 µM)	0.085 (≈ 0.243 µM)	6.7 (≈ 19.2 µM)	0.015 (≈ 0.0429 µM)	0.07 (≈ 0.2 µM)
Cc1occc1C(=S)Nc1ccc(Cl)c(C(=O)OCC(F)(F)F)c1 [Compound 106]	0.5 (≈ 1.32 µM)	0.08 (≈ 0.212 µM)	0.065 (≈ 0.172 µM)	> 100	0.007 (≈ 0.0185 µM)	0.085 (≈ 0.225 µM)
CCC(CC)OC(=O)c1cc(NC(=S)c2ccoc2C)ccc1Cl [Compound 107]	0.6 (≈ 1.64 µM)	0.3 (≈ 0.82 µM)	0.15 (≈ 0.41 µM)	16 (≈ 43.7 µM)	0.04 (≈ 0.109 µM)	0.3 (≈ 0.82 µM)
CCC(CC)COC(=O)c1cc(NC(=S)c2ccoc2C)ccc1Cl [Compound 108]	0.27 (≈ 0.711 µM)	0.08 (≈ 0.211 µM)	0.07 (≈ 0.184 µM)	7 (≈ 18.4 µM)	0.007 (≈ 0.0184 µM)	0.08 (≈ 0.211 µM)
Cc1occc1C(=S)Nc1ccc(Cl)c(C(=O)OC2CCCC2)c1 [Compound 109]	0.17 (≈ 0.467 µM)	0.04 (≈ 0.11 µM)	0.035 (≈ 0.0962 µM)	4.3 (≈ 11.8 µM)	0.005 (≈ 0.0137 µM)	0.045 (≈ 0.124 µM)
C=CC(C)(C)OC(=O)c1cc(NC(=S)c2ccoc2C)ccc1Cl [Compound 110]	4 (≈ 11 µM)	0.2 (≈ 0.55 µM)	0.1 (≈ 0.275 µM)	25 (≈ 68.7 µM)	0.04 (≈ 0.11 µM)	0.5 (≈ 1.37 µM)
C=CCON=Cc1cc(NC(=S)c2ccoc2C)ccc1Cl [Compound 111]	0.5 (≈ 1.49 µM)	0.085 (≈ 0.254 µM)	0.077 (≈ 0.23 µM)	12 (≈ 35.8 µM)	0.007 (≈ 0.0209 µM)	0.3 (≈ 0.896 µM)
C#CCON=Cc1cc(NC(=S)c2ccoc2C)ccc1Cl [Compound 112]	0.75 (≈ 2.25 µM)	0.35 (≈ 1.05 µM)	0.5 (≈ 1.5 µM)	10 (≈ 30 µM)	0.025 (≈ 0.0751 µM)	0.8 (≈ 2.4 µM)
Cc1occc1C(=S)Nc1ccc(Cl)c(C=NOC2CCCC2)c1 [Compound 113]	0.27 (≈ 0.744 µM)	0.085 (≈ 0.234 µM)	0.15 (≈ 0.413 µM)	5.4 (≈ 14.9 µM)	0.023 (≈ 0.0634 µM)	0.13 (≈ 0.358 µM)
Cc1occc1C(=S)Nc1ccc(Cl)c(OCC(=O)OC(C)(C)C)c1 [Compound 115]	0.65 (≈ 1.7 µM)	0.2 (≈ 0.524 µM)	0.77 (≈ 2.02 µM)	4.3 (≈ 11.3 µM)	0.29 (≈ 0.759 µM)	0.5 (≈ 1.31 µM)
CCOC(=O)CSc1cc(NC(=S)c2ccoc2C)ccc1Cl [Compound 116]	1.8 (≈ 4.87 µM)	5.5 (≈ 14.9 µM)	0.6 (≈ 1.62 µM)	≥ 100	0.085 (≈ 0.23 µM)	2 (≈ 5.41 µM)
C#CCOc1cc(NC(=S)c2ccoc2C)ccc1Cl [Compound 117]	5 (≈ 16.4 µM)	0.75 (≈ 2.45 µM)	0.35 (≈ 1.14 µM)	18 (≈ 58.9 µM)	0.06 (≈ 0.196 µM)	4 (≈ 13.1 µM)
